Test results: patent US20200140489A1 (priority 2013, published 2020)
Like-named read-outs stand apart in the source and are kept apart here. Positions of bridges follow the written chain, without caps; N, C: chain ends. Non-standard residues stand in square brackets, D forms with d. Residues, ends and D or L forms follow the SMILES beside them. NMeF = CN[C@@H](Cc1ccccc1)C(=O)O; NMeN = CN[C@@H](CC(N)=O)C(=O)O; NMeC = CN[C@@H](CS)C(=O)O; Nphe = O=C(O)CNCc1ccccc1

Columns and labels:
[1] = test system: TSST-1 production in wild-type group-III S. aureus (MN8); assay type: cell-based
AgrC-II [2] = molecular target: T1, AgrC-II (Staphylococcus aureus, UniProt O33587); assay type: cell-based, S. aureus; conditions: for IC50: read-out: AgrC-II IC50, fluorescence reporter strain
AgrC-II [3] = molecular target: T1, AgrC-II; experiment: Hemolysis assay, wild-type group-II strain RN6923, rabbit red blood cells; conditions: for IC50: read-out: AgrC-II IC50, selected second-generation analogues, hemolysis assay, 200 fM − 10 μM
AgrC-IV [4] = molecular target: T2, AgrC-IV (Staphylococcus aureus, UniProt Q309Z2); assay type: cell-based, S. aureus; conditions: for IC50: read-out: AgrC-IV IC50, fluorescence reporter strain
AgrC-I [5] = molecular target: T3, AgrC-I (Staphylococcus aureus, UniProt O07911); assay type: cell-based, S. aureus; conditions: for IC50: read-out: AgrC-I IC50
AgrC-III [6] = molecular target: T4, AgrC-III (Staphylococcus aureus, UniProt O33590); assay type: cell-based, S. aureus; conditions: for IC50: read-out: AgrC-III IC50, fluorescence reporter strain
AgrC-IV [7] = molecular target: T2, AgrC-IV; experiment: Hemolysis assay, wild-type group-IV strain RN4850, rabbit red blood cells; conditions: for IC50: read-out: AgrC-IV IC50, hemolysis assay, 200 fM − 10 μM
AgrC-III [8] = molecular target: T4, AgrC-III; experiment: Hemolysis assay, wild-type group-III strain MN8, rabbit red blood cells
AgrC-III [9] = molecular target: T4, AgrC-III; conditions: read-out: AgrC-III EC50; β-lactamase reporter strain; 2.5 pM − 10 μM
AgrC-I [10] = molecular target: T3, AgrC-I; experiment: Hemolysis assay, wild-type group-I strain RN6390B, rabbit red blood cells; conditions: read-out: AgrC-I IC50; selected second-generation analogues, hemolysis assay; 200 fM − 10 μM
[11] = AIPs tested over 200 fM − 10 μM or (b1) 2.5 pM − 10 μM, triplicate
[12] = fluorescence reporter strain, AIPs tested over 200 fM − 10 μM or (b1) 2.5 pM − 10 μM, triplicate
[13] = second-generation analogues, 200 fM − 10 μM
[14] = selected second-generation analogues
[15] = read-out: AgrC-III IC50, selected second-generation analogues, 200 fM − 10 μM

T3 sequence (O07911 1-430): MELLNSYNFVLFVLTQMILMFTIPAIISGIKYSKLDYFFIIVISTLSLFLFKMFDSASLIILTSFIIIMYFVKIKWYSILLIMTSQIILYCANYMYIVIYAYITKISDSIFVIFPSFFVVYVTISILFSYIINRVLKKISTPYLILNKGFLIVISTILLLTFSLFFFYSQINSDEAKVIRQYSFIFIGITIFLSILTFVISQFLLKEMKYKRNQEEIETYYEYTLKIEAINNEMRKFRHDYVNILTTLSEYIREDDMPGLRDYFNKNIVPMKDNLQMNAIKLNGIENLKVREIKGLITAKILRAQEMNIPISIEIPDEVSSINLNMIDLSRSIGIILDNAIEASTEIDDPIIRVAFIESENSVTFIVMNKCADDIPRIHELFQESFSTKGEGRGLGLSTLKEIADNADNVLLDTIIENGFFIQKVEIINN
T4 sequence (O33590 1-425): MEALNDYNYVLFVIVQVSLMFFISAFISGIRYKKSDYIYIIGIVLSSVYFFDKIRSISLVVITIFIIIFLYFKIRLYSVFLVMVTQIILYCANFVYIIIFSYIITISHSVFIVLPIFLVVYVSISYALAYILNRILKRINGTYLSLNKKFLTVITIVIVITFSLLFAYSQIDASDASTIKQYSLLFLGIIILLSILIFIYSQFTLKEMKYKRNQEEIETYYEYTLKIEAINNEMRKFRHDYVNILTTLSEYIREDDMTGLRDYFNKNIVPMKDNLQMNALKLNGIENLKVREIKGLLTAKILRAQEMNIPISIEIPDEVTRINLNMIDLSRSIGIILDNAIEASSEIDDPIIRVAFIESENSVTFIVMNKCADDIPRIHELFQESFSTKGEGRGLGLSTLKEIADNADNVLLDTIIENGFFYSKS
T1 sequence (O33587 1-437): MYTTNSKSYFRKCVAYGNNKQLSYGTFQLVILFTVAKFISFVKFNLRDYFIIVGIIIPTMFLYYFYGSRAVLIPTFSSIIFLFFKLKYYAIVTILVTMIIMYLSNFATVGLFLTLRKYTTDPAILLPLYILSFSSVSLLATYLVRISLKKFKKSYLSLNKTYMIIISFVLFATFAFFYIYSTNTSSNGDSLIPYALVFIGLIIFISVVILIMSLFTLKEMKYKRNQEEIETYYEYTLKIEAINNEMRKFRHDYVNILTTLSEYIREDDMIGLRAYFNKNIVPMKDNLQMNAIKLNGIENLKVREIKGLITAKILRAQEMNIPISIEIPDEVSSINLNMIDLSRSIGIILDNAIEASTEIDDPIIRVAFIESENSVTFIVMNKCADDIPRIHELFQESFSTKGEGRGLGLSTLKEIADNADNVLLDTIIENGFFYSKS
T2 sequence (Q309Z2 1-430): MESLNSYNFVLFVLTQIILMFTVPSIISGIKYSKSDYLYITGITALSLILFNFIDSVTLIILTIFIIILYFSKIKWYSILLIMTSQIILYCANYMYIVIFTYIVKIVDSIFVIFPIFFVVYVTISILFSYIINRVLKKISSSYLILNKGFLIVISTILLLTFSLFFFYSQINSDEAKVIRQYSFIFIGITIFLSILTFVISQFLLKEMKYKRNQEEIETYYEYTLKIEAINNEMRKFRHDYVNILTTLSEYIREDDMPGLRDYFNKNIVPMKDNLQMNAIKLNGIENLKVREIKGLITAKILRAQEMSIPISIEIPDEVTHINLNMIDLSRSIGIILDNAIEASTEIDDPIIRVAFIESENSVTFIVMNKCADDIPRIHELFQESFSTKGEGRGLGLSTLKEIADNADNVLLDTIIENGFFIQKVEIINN

Structure (SMILES): CC[C@H](C)[C@H](N)C(=O)N[C@@H](CC(N)=O)C(=O)N[C@H]1CSC(=O)[C@H](CC(C)C)NC(=O)[C@H](CC(C)C)NC(=O)[C@H](Cc2ccccc2)NC(=O)[C@H](C)NC1=O [AIP-III D4A, I-N-(C-A-F-L-L)] (H-INCAFLL; thioester 3-C)
- reduction of TSST-1 levels [1]: 80%
- fold increase of inhibitory activity relative to AIP-III (AgrC-II [2]; gfp reporter, group-II): at least 10 fold
- fold more active inhibitor than tAIP-I D2A (AgrC-II [2]; gfp reporter, group-II): ~10 fold
- fold more active than tAIP-I D2A in the hemolysis assay (AgrC-II [3]; group-II strain): 40 fold
- fold increase of inhibitory activity relative to AIP-III (AgrC-IV [4]; gfp reporter, group-IV): at least 10 fold
- fold more active inhibitor than tAIP-I D2A (AgrC-IV [4]; gfp reporter, group-IV): ~10 fold
- fold increase of inhibitory activity relative to AIP-III (AgrC-I [5]; gfp reporter, group-I): at least 10 fold
- fold more active inhibitor than tAIP-I D2A (AgrC-I [5]; gfp reporter, group-I): ~10 fold
- fold increase of inhibitory activity relative to AIP-III (AgrC-III [6]; gfp reporter, group-III): at least 10 fold
- fold more active inhibitor than tAIP-I D2A (AgrC-III [6]; gfp reporter, group-III): ~10 fold
- fold more active than tAIP-I D2A in the hemolysis assay (AgrC-IV [7]; group IV strain): three
- IC50 (AgrC-IV [7]): 0.106 nM
- IC50 (AgrC-III [8]; read-out: AgrC-III IC50, 200 fM − 10 μM): 0.163 nM

Structure (SMILES): CC[C@H](C)[C@H](N)C(=O)N[C@@H](CC(N)=O)C(=O)N(C)[C@H]1CSC(=O)[C@H](CC(C)C)NC(=O)[C@H](CC(C)C)NC(=O)[C@H](Cc2ccccc2)NC(=O)[C@H](CC(=O)O)NC1=O [AIP-III N-Me-C3, I-N-(NMeC-D-F-L-L)] (H-IN[NMeC]DFLL; thioester 3-C)
- IC50 (AgrC-II [2]; [11]): 134 nM
- EC50 (AgrC-III [9]): > 1000 nM
- IC50 (AgrC-IV [4]; [11]): 106 nM
- IC50 (AgrC-I [5]; [12]): 137 nM

Structure (SMILES): CC[C@H](C)[C@H](N)C(=O)N[C@@H](CC(N)=O)C(=O)N[C@H]1CSC(=O)[C@H](CC(C)C)NC(=O)[C@H](CC(C)C)NC(=O)[C@H](Cc2ccccc2)N(C)C(=O)[C@H](CC(=O)O)NC1=O [AIP-III N-Me-F5, I-N-(C-D-NMeF-L-L)] (H-INCD[NMeF]LL; thioester 3-C)
- IC50 (AgrC-II [2]; [11]): 1.95 nM
- EC50 (AgrC-III [9]): 49.6 nM
- IC50 (AgrC-IV [4]; [11]): 6.59 nM
- IC50 (AgrC-I [5]; [12]): 4.49 nM

Structure (SMILES): CC[C@H](C)[C@H](N)C(=O)N(C)[C@@H](CC(N)=O)C(=O)N[C@H]1CSC(=O)[C@H](CC(C)C)NC(=O)[C@H](CC(C)C)NC(=O)[C@H](Cc2ccccc2)NC(=O)[C@H](CC(=O)O)NC1=O [AIP-III N-Me-N2, I-NMeN-(C-D-F-L-L)] (H-I[NMeN]CDFLL; thioester 3-C)
- IC50 (AgrC-II [2]; [11]): 3.19 nM
- EC50 (AgrC-III [9]): 19 nM
- IC50 (AgrC-IV [4]; [11]): 9.54 nM
- IC50 (AgrC-I [5]; [12]): 8.04 nM

Structure (SMILES): CC[C@H](C)[C@H](N)C(=O)N[C@@H](CC(N)=O)C(=O)N[C@H]1CSC(=O)[C@H](CC(C)C)NC(=O)[C@H](CC(C)C)NC(=O)CN(Cc2ccccc2)C(=O)[C@H](CC(=O)O)NC1=O [AIP-III nF5, I-N-(C-D-nF-L-L)] (H-INCD[Nphe]LL; thioester 3-C)
- fold reduction of potency for AgrC-II versus AIP-III (AgrC-II [2]; gfp reporter): 13 fold
- IC50 (AgrC-II [2]; [11]): 75.6 nM
- EC50 (AgrC-III [9]): 202 nM
- fold increase of inhibitory activity relative to AIP-III (AgrC-IV [4]; gfp reporter, group-IV): 10 fold
- IC50 (AgrC-IV [4]; [11]): 0.839 nM
- IC50 (AgrC-I [5]; [12]): 13.8 nM
- IC50 (AgrC-III [6]; [11]): > 1000 nM

Structure (SMILES): CC(=O)N[C@H]1CSC(=O)[C@H](CC(C)C)NC(=O)[C@H](CC(C)C)NC(=O)[C@H](Cc2ccccc2)NC(=O)[C@H](C)NC1=O [tAIP-III D2A, Ac-(C-A-F-L-L)] (Ac-CAFLL; thioester 1-C)
- reduction of TSST-1 levels [1]: 80%
- IC50 (AgrC-II [2]; [13]): 0.9 nM
- IC50 (AgrC-II [3]): 0.711 nM
- IC50 (AgrC-IV [7]; [14]): 0.306 nM
- IC50 (AgrC-III [8]; [15]): 0.197 nM
- IC50 (AgrC-I [10]): 0.332 nM

Structure (SMILES): CC(=O)N[C@H]1CSC(=O)[C@H](CC(C)C)NC(=O)[C@H](CC(C)C)NC(=O)[C@H](Cc2ccc(O)cc2)NC(=O)[C@H](C)NC1=O [tAIP-III D2A/F3Y, Ac-(C-A-Y-L-L)] (Ac-CAYLL; thioester 1-C)
- IC50 (AgrC-II [2]; [13]): 1.15 nM
- IC50 (AgrC-II [3]): 0.204 nM
- IC50 (AgrC-IV [4]; [13]): 0.0306 nM
- IC50 (AgrC-I [5]): 0.279 nM
- IC50 (AgrC-III [6]; [13]): 0.387 nM
- IC50 (AgrC-IV [7]; [14]): 0.134 nM
- IC50 (AgrC-III [8]; [15]): 0.265 nM
- IC50 (AgrC-I [10]): 0.279 nM
